Columns and labels:
[1] = biological target: T1, Human αvβ3 (Homo sapiens, UniProt P05106+P06756); assay: In vitro solid phase purified αvβ3 binding assay (vitronectin/αvβ3); conditions: vitronectin binding to immobilized αvβ3; read-out: αvβ3 IC50
T1 construct: purchased Chemicon International Inc., Temecula, Calif
Protocol: In Vitro Solid Phase Purified αvβ3 Binding Assay
The vitronectin/αvβ3 binding assay methods were derived from Mehta et al. (Biochem J. 1998, 330, 861). Human αvβ3 (Chemicon International Inc., Temecula, Calif.), at a concentration of 1 μg/ml dissolved in Tris buffer (20 mM Tris, 1 mM CaCl2, […], 10 μM MnCl2, 150 mM NaCl), was immobilized on Immulon 96 well plates (Dynex Technologies, Chantilly, Va.) overnight at 4° C. Plates were washed and treated with blocking buffer (3% BSA in Tris buffer) for 2 h at 37° C. Plates were then rinsed 2 times with Tris buffer containing 0.3% BSA and 0.2% Tween20 (polyoxyethylenesorbitan monolaurate). Five minutes prior to the addition of 5 nM vitronectin (Sigma, St. Louis, Mo.), synthesized compounds were added to wells in duplicate. Each plate included c-RGDfV as an internal control. Following a 3 hour incubation at 37° C., plates were washed 5 times in assay buffer. An anti-human vitronectin IgG rabbit polyclonal antibody (Calbiochem, San Diego, Calif.) was added (1:2000) and plates were incubated for 1 hour at room temperature. VectaStain ABC peroxidase kit reagents (Vector Laboratories, Burlingame, Calif.) employing a biotin labeled anti-rabbit IgG, were utilized for detection of bound antibody. Plates were read at 490 nm on a Molecular Devices (Sunnyvale, Calif.) microplate reader.

[2] = biological target: RGD-affinity purified GPIIb/IIIa (Homo sapiens, UniProt P05106+P08514); assay: In vitro solid phase purified GPIIb/IIIa binding assay (biotinylated fibrinogen); conditions: fibrinogen binding to immobilized GPIIb/IIIa; read-out: IIb/IIIa IC50
Protocol: In Vitro Solid Phase Purified GP IIB/IIIA Binding Assay
The plate was covered and incubated overnight at 4° C. The GPIIb/IIIa solution was discarded and 150 μl of 5% BSA was added and incubated at RT for 1-3 h. The plate was washed extensively with modified Tyrodes buffer. Biotinylated fibrinogen (25 μl/well) at 2× final concentration was added to the wells that contain the test compounds (25 μl/well). The plate was covered and incubated at RT for 2-4 h. Twenty minutes prior to incubation completion, one drop of Reagent A (VectaStain ABC Horse Radish Peroxidase kit, Vector Laboratories, Inc.) and one drop Reagent B were added with mixing to 5 mL modified Tyrodes buffer mix and let stand. The ligand solution was discarded and the plate washed (5×200 μl/well) with modified Tyrodes buffer. Vecta Stain HRP-Biotin-Avidin reagent (50 μl/well, as prepared above) was added and incubated at RT for 15 min. The Vecta Stain solution was discarded and the wells washed (5×200 μl/well) with modified Tyrodes buffer. Developing buffer (10 mL of 50 mM citrate/phosphate buffer @ pH 5.3, 6 mg o-phenylenediamine, 6 μl 30% H2O2; 50 μl/well) was added and incubated at RT for 3-5 min, and then 2 NH2SO4 (50 μl/well) was added. The absorbance was read at 490 nm.

T1 sequence (P06756 31-889 limits assumed): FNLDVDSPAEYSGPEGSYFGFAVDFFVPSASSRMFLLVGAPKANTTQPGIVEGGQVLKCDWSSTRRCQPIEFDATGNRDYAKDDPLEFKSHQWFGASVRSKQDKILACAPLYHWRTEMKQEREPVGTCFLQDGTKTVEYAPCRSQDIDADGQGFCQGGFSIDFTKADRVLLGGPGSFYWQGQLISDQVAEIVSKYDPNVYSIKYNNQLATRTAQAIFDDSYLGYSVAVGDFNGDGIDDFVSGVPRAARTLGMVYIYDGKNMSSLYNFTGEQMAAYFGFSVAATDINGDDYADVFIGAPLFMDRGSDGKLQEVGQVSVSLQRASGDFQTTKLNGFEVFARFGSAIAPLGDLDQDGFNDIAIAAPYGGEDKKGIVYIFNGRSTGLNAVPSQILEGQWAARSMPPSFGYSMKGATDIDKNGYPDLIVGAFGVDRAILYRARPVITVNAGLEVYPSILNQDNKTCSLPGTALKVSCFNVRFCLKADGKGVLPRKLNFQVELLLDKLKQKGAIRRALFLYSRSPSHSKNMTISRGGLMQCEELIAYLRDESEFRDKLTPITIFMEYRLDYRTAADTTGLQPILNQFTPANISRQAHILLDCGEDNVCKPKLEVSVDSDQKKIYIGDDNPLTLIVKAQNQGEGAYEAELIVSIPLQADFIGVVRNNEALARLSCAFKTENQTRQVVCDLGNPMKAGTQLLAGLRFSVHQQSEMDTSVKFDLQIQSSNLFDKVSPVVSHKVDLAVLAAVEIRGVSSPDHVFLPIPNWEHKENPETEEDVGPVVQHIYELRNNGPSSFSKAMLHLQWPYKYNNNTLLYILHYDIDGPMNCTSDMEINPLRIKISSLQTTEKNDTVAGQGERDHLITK
T1 sequence (P06756 891-1048 partner limits assumed): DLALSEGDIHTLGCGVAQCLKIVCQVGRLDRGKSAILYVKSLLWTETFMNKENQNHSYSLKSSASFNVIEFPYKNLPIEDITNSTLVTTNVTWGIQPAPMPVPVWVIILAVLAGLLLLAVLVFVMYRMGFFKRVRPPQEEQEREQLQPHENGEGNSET
T1 sequence (P05106 27-788): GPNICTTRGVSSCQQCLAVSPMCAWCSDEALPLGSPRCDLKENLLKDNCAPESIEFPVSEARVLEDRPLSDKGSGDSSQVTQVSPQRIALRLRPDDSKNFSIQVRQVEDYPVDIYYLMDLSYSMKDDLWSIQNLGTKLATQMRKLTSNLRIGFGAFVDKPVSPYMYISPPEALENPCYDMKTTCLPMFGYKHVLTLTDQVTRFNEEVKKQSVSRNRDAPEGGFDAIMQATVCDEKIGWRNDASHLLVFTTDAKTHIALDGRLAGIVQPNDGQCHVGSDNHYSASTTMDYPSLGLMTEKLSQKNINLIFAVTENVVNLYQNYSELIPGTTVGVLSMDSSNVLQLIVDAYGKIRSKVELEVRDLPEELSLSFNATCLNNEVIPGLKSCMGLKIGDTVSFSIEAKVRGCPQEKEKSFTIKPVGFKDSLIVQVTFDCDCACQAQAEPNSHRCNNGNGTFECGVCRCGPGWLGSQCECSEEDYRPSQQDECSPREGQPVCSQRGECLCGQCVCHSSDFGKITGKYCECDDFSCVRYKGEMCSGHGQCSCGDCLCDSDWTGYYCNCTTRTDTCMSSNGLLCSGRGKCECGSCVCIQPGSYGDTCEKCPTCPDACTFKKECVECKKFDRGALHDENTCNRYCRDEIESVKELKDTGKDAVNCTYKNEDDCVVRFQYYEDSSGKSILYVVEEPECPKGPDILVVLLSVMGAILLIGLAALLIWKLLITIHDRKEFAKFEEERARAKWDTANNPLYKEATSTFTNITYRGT
Chain of RGD-affinity purified GPIIb/IIIa (P08514 32-887 limits assumed): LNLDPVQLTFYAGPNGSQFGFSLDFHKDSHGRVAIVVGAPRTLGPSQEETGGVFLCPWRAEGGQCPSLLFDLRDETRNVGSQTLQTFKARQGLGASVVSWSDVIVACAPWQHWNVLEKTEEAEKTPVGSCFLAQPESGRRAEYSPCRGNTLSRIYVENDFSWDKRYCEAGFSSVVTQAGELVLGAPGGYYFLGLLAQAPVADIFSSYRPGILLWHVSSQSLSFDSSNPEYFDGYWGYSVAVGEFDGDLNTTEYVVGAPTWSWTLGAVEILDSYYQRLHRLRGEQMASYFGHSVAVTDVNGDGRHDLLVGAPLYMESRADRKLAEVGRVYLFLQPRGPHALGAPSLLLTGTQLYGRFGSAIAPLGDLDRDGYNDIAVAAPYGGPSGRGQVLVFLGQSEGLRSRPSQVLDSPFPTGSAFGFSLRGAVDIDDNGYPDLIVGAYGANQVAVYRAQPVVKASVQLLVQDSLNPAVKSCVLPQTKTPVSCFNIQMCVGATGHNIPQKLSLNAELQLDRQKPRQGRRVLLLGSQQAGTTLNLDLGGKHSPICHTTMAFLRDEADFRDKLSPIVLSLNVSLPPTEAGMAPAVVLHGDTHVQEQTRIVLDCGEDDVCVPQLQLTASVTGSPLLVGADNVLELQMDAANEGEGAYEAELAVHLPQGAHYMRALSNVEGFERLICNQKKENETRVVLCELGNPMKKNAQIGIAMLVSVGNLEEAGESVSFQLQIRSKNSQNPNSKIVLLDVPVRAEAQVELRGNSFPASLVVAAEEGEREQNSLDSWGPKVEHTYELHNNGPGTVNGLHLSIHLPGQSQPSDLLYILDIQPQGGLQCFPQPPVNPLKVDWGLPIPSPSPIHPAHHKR
Chain of RGD-affinity purified GPIIb/IIIa (P08514 891-1039 partner limits assumed): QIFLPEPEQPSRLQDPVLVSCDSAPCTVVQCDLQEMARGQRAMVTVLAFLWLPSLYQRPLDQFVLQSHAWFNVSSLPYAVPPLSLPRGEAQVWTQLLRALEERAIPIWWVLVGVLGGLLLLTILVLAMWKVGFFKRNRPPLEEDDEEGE
Chain of RGD-affinity purified GPIIb/IIIa (P05106 27-788): as the sequence (P05106 27-788) above

SMILES | IC50 [1] [nM] | IC50 [2] [nM]
O=C(N[C@H](CNC(=O)C1CCN(C(=O)CCCNC2=NCCS2)CC1)C(=O)O)OCc1ccccc1 [Compound 57] | 350 | 130
O=C(N[C@@H](CNC(=O)C1CCN(C(=O)NCCCn2ccnc2)CC1)C(=O)O)OCc1ccccc1 [Compound 10] | > 50000 | 950
O=C(N[C@@H](CNC(=O)C1CCN(C(=O)[C@@H]2C=C[C@H](NC3=NCCN3)C2)CC1)C(=O)O)OCc1ccccc1 [Compound 14, 3-[[[1-[[(1S,4R)-4-[(4,5-dihydro-1H-imidazol-2-yl)amino]-2-cyclopenten-1-yl]carbonyl]-4-piperidinyl]carbonyl]amino]-N-[(phenylmethoxy)carbonyl]-L-alanine] | 50 | 9.2
O=C(O)CC(NC(=O)C1CCN(C(=O)CCc2nc3ccccc3[nH]2)CC1)c1cccc2ccccc12 (stereo not shown) [Compound 15] | > 5000 | 17000
COc1cc(OC)cc(C(CC(=O)O)NC(=O)C2CCN(C(=O)CCCNC3=NCCN3)CC2)c1 (stereo not shown) [Compound 24] | 64 | 2200
Cc1cccc(C(CC(=O)O)NC(=O)C2CCN(C(=O)CCCNC3=NCCN3)CC2)c1 (stereo not shown) [Compound 22] | > 500 | 38000
O=C(O)CC(NC(=O)C1CCN(C(=O)CCCNC2=NCCN2)CC1)c1ccc2ccccc2c1 (stereo not shown) [Compound 37] | 290 | 1700
O=C(O)C[C@H](NC(=O)C1CCN(C(=O)OCCNC2=NCCN2)CC1)c1cnc2ccccc2c1 [Compound 39, β-[[[1-[[2-[(4,5-dihydro-1H-imidazol-2-yl)amino]ethoxy]carbonyl]-4-piperidinyl]carbonyl]amino]-, (β^3S)-3-quinolinepropanoic acid] | 2.3 | 36
O=C(O)CC(NC(=O)C1CCN(C(=O)CCCNC2=NCCN2)CC1)c1cc(Cl)cc(Cl)c1 (stereo not shown) [Compound 26] | 120 | 1800
O=C(O)CC(NC(=O)C1CCN(C(=O)CCCNc2ccccn2)CC1)c1ccc2c(c1)OCO2 (stereo not drawn) [Compound 62, β-[[[1-[1-oxo-4-(2-pyridinylamino)butyl]-4-piperidinyl]carbonyl]amino]-1,3-benzodioxole-5-propanoic acid] | > 500 | 380
O=C(N[C@@H](CNC(=O)C1CCN(C(=O)[C@H]2C=C[C@@H](NC3=NCCN3)C2)CC1)C(=O)O)OCc1ccccc1 [Compound 17, 3-[[[1-[[(1R,4S)-4-[(4,5-dihydro-1H-imidazol-2-yl)amino]-2-cyclopenten-1-yl]carbonyl]-4-piperidinyl]carbonyl]amino]-N-[(phenylmethoxy)carbonyl]-L-alanine] | 380 | 5.4
O=C(N[C@@H](CNC(=O)C1CCN(C(=O)CCNC2=NCCN2)CC1)C(=O)O)OCc1ccccc1 [Compound 12] | 20 | 14
O=C(O)CC(NC(=O)C1CCN(C(=O)CCc2nc3ccccc3[nH]2)CC1)c1ccc2c(c1)OCCO2 (stereo not shown) [Compound 13] | 10000 | 29000
O=C(O)CC(NC(=O)C1CCN(C(=O)CCCNC2=NCCN2)CC1)c1ccc(F)c(F)c1 (stereo not shown) [Compound 43] | 230 | 1300
O=C(O)CC(NC(=O)C1CCN(C(=O)OCCNC2=NCCN2)CC1)c1cccnc1 (stereo not shown) [Compound 31] | 29 | 4200
O=C(O)CC(NC(=O)C1CCN(C(=O)C2CCNCC2)CC1)c1cnc2ccccc2c1 (stereo not shown) [Compound 9] | 30000 | 300
CC(CCNC1=NCCN1)C(=O)N1CCC(C(=O)NC[C@H](NC(=O)OCc2ccccc2)C(=O)O)CC1 (stereo partly drawn) [Compound 47, 3-[[[1-[4-[(4,5-dihydro-1H-imidazol-2-yl)amino]-2-methyl-1-oxobutyl]-4-piperidinyl]carbonyl]amino]-N-[(phenylmethoxy)carbonyl]-L-alanine] | 4 | 28
O=C(N[C@@H](CNC(=O)C1CCN(C(=O)C2CCN(C3=NCCN3)CC2)CC1)C(=O)O)OCc1ccccc1 [Compound 11, 3-[[[1-[[1-(4,5-dihydro-1H-imidazol-2-yl)-4-piperidinyl]carbonyl]-4-piperidinyl]carbonyl]amino]-N-[(phenylmethoxy)carbonyl]-L-alanine] | 1300 | 2.6
O=C(O)C[C@H](NC(=O)C1CCN(C(=O)CCCNC2=NCCN2)CC1)c1ccc(Cl)nc1 [Compound 3, 6-chloro-β-[[[1-[4-[(4,5-dihydro-1H-imidazol-2-yl)amino]-1-oxobutyl]-4-piperidinyl]carbonyl]amino]-, (β^3S)-3-pyridinepropanoic acid] | 28 | 130

SMILES | IC50 [1] [nM] | IC50 [2] [nM]
C[C@H](CC(=O)O)NC(=O)C1CCN(C(=O)CCCNC2=NCCN2)CC1 [Compound 4, 3-[[[1-[4-[(4,5-dihydro-1H-imidazol-2-yl)amino]-1-oxobutyl]-4-piperidinyl]carbonyl]amino]-, (3R)-butanoic acid] | 150 | 1700
O=C(O)CC(NC(=O)C1CCN(C(=O)CCCNC2=NCCN2)CC1)c1ccc2c(c1)OCO2 (stereo not shown) [Compound 21] | 23 | 410
O=C(O)C[C@H](NC(=O)C1CCN(C(=O)CCCNC2=NCCN2)CC1)c1cccnc1 [Compound 33] | 19 | 1800
Cc1cccnc1NCCCC(=O)N1CCC(C(=O)NC[C@H](NC(=O)OCc2ccccc2)C(=O)O)CC1 [Compound 41] | > 300 | 110
CC(CCNC1=NCCN1)C(=O)N1CCC(C(=O)N[C@@H](CC(=O)O)Cc2ccccc2)CC1 (stereo partly shown) [Compound 48] | 510 | 1100
O=C(N[C@@H](CNC(=O)C1CCN(C(=O)CC(CNC2=NCCN2)c2ccc(Cl)cc2)CC1)C(=O)O)OCc1ccccc1 (stereo partly shown) [Compound 18] | 50 | 15
O=C(N[C@@H](CNC(=O)C1CCN(C(=O)CCc2nc3ccccc3[nH]2)CC1)C(=O)O)OCc1ccccc1 [Compound 8] | 550 | 1100
O=C(O)CC(NC(=O)C1CCN(C(=O)CCONC2=NCCN2)CC1)c1ccc2c(c1)OCO2 (stereo not drawn) [Compound 61, β-[[[1-[3-[[(4,5-dihydro-1H-imidazol-2-yl)amino]oxy]-1-oxopropyl]-4-piperidinyl]carbonyl]amino]-1,3-benzodioxole-5-propanoic acid] | 180 | 2700
COC(=O)[C@H](CNC(=O)C1CCN(C(=O)CCCNC2=NCCN2)CC1)NC(=O)OCc1ccccc1 [Compound 42] | 170 | 140
O=C(O)CC(NC(=O)C1CCN(C(=O)OCCNC2=NCCN2)CC1)c1cc(F)cc(F)c1 (stereo not shown) [Compound 35] | 140 | 1600
O=C(O)CC(NC(=O)C1CCN(C(=O)OCCNC2=NCCN2)CC1)c1ccc2c(c1)OCO2 (stereo not shown) [Compound 29] | 34 | 210
O=C(O)CC(NC(=O)C1CCN(C(=O)CCCNC2=NCCN2)CC1)c1cccnc1 (stereo not shown) [Compound 25] | 32 | 2900
O=C(N[C@@H](CNC(=O)C1CCN(C(=O)c2ccc(CNC3=NCCN3)cc2)CC1)C(=O)O)OCc1ccccc1 [Compound 53, 3-[[[1-[4-[[(4,5-dihydro-1H-imidazol-2-yl)amino]methyl]benzoyl]-4-piperidinyl]carbonyl]amino]-N-[(phenylmethoxy)carbonyl]-L-alanine] | 570 | 1.5
O=C(O)CC(NC(=O)C1CCN(C(=O)CCCNC2=NCCN2)CC1)c1ccc2c(c1)CCO2 (stereo not shown) [Compound 23] | > 500 | 7300
O=C(O)CC(NC(=O)C1CCN(C(=O)CCCNC2=NCCN2)CC1)c1cccc2ccccc12 (stereo not shown) [Compound 36] | > 300 | 12000
CC(CNC1=NCCN1)CC(=O)N1CCC(C(=O)NC[C@H](NC(=O)OCc2ccccc2)C(=O)O)CC1 (stereo partly shown) [Compound 54] | 72 | 13
O=C(O)CC(NC(=O)C1CCN(C(=O)CCCNC2=NCCN2)CC1)c1cccc(F)c1 (stereo not shown) [Compound 32] | 120 | 3600
O=C(O)C[C@H](NC(=O)C1CCN(C(=O)OCCNC2=NCCN2)CC1)c1cccnc1 [Compound 40] | 12 | 1100
NCCCC(=O)N1CCC(C(=O)NC[C@H](NC(=O)OCc2ccccc2)C(=O)O)CC1 [Compound 56] | > 5000 | 49
